Measured values reported in patent US12234240B2, “Substituted imidazo[5,1-d][1,2,3,5]tetrazines for the treatment of cancer” (The Board of Trustees of the University of Illinois, priority 2018, dated 2025).
Read-outs that look alike come from different tables or passages of the source.

Columns and labels:
D54 cells = assay: Cell viability, Alamar Blue, 7-day incubation, D54; assay type: cell-based; conditions: Homo sapiens, D54, 168 h, MGMT −, error SEM
Method: (§1) Anticancer activity of C8 substituted imidazotetrazines. With a suite of imidazotetrazines in hand, each compound was evaluated against a panel of human GBM cell lines (Table 1a, Table 1b).

U87 cells = assay: Cell viability, Alamar Blue, 7-day incubation, U87; assay type: cell-based; conditions: Homo sapiens, U-87 MG, 168 h, MGMT −, error SEM
Method: as §1

T98G cells [1] = assay: Cell viability, Alamar Blue, 7-day incubation, T98G; assay type: cell-based; conditions: Homo sapiens, 168 h, MGMT +, error SEM
Method: as §1

[2] = Mouse liver microsome stability assay; assay type: in vitro ADME; conditions: for metabolic stability in words: mouse liver microsomes, 2 hours; for Stability (2 h, Microsomes): percentage remaining relative to t0, error SEM, n ≥ 2
Method: (§2) Liver microsome stability.
(§3) Mouse Liver Microsome Stability Assay. A mixture of PBS (pH 7.4), NADPH regenerating system solution A (Corning Life Sciences), and NADPH regenerating system solution B (Corning Life Sciences) was incubated at 37° C. in a shaking incubator for 5 min. Next, compound was added in DMSO (final concentration 50 μM, 0.5% DMSO) before ice-cold mouse liver microsomes (Thermo Fisher, male CD-1 mice, pooled) were added (final protein concentration of 1 mg/mL). An aliquot was immediately removed, quenched with an equal volume of 100 μM internal standard and 0.5% hydrochloric acid in ice-cold acetonitrile, and centrifuged at 13,000 rcf for 3 min. The supernatant was diluted 1:5 in ddH2O and analyzed by LC-MS. The reactions were incubated at 37° C. in a shaking incubator for 2 h. A second aliquot was removed, quenched and diluted as before and analyzed by LC-MS. The ratio of the areas of analyte:internal standard at 2 hours was compared to the ratio at t0 to determine the percentage of compound remaining. Analysis was performed on an Agilent 6230 LC/MS TOF system with a 1.8 μm, 2.1×50 mm Agilent ZORBAX Eclipse Plus C18 column.

[3] = system: Br23c GBM oncosphere cell line; assay: Cell viability, Alamar Blue, 7-day, Br23c GBM oncosphere line; assay type: cell-based; conditions: Homo sapiens, 168 h, error SEM, read-out: 7-day IC50 MGMT − Br23C
[4] = system: GBM Br23c oncospheres intracranially implanted; assay: Intracranial mouse model of GBM (Br23c oncospheres); assay type: in vivo; conditions: for increase in median survival over TMZ: equimolar to 15 mg/kg TMZ, oral gavage once-per-day, 5×/week, 7 weeks
Text: FIG. 5. Evaluation of imidazotetrazines in intracranial mouse models of GBM. GBM Br23c oncospheres were intracranially implanted into female athymic nude mice. Treatment was started 5 days post implantation. […] Compounds were formulated in 10% PEG in PBS immediately prior to each treatment. Number of mice per treatment cohort≥5. Survival curves were compared using log-rank test.
in vivo Efficacy Models. Human GBM Br23c stem-like neurosphere cells were intracranially implanted in female athymic nude mice (150,000 cells/mouse). […] Mice were observed daily for any signs of deterioration, neurotoxicity, or movement disorders. They were inspected for signs of pain and distress, as in accordance with the Johns Hopkins Animal Care and Use Guidelines.

T98G cells [5] = assay: cells; assay type: cell-based; conditions: for IC50: Homo sapiens, 7-day incubation; for Fold Change: between IC50 (+/−) O6BG
Method: FIG. 4. Imidazotetrazines were added to T98G cells with or without 3 h pre-treatment of O6BG (100 μM). IC50 values after 7-day incubation and fold changes between (+/−) O6BG treatments are reported. […] Error is SEM, n≥3. Statistical significance was determined by using a two-sample Student's t-test (two-tailed test, assuming equal variance).

[6] = Stability in the absence of microsomes (microsomes replaced with PBS); assay type: physicochemical; conditions: liver microsomes replaced with PBS, percentage remaining relative to t0
Method: as §2, §3

[7] = Hydrolytic stability in buffered saline (HPLC assay); conditions: saline at pH 7.0, 7.4, and 8.0, 2 h at 37° C.
Method: Hydrolytic stability of C8 substituted imidazotetrazines. […] A HPLC assay was developed to quantify the fraction of intact prodrug remaining in solution after 2 hours at pH 7.4, 37° C.

[8] = Assessment of hematological toxicity in vivo
Method: Assessment of hematological toxicity. […] Both lymphocyte (FIG. 3b) and neutrophil (FIG. 8a) concentrations were decreased in TMZ-treated mice. […] Total WBC, lymphocyte, and neutrophil counts for mice treated with these compounds were equivalent to those of control mice.
Assessment of Hematological Toxicity. Male CD-1 IGS mice (n=4 mice/group) were administered a single dose of 125 mg/kg compound intravenously. Imidazotetrazines were formulated with SBEβCD in sterile water immediately prior to injection. Seven days post-treatment, mice were humanely sacrificed and whole blood was collected for assessment of total white blood cells, lymphocytes, neutrophils, platelets, and red blood cells.

[9] = Table 1a, 7 days, read-out: IC50 D54
[10] = Table 1a, 7 days, n ≥ 3, read-out: IC50 U87
[11] = Table 1a, 7 days, read-out: IC50 T98G
[12] = 3 h pre-treatment with O6BG (100 μM)
[13] = Table 1b, read-out: 7-day IC50 D54
[14] = Table 1b, read-out: 7-day IC50 U87
[15] = Table 1b, read-out: 7-day IC50 T98G

| SMILES | IC50 (D54 cells; [9]) [µM] | IC50 (U87 cells; [10]) [µM] | IC50 (T98G cells [1]; [11]) [µM] | metabolic stability in words [2] | other results |
| --- | --- | --- | --- | --- | --- |
| Cn1nnc2c(C(=O)O)ncn2c1=O [Compound 3] | 130 ± 8 | 320 ± 7 | 321 ± 8 | – | – |
| CNC(=O)c1ncn2c(=O)n(C)nnc12 [Compound 4, N,3-dimethyl-4-oxo-3,4-dihydroimidazo[5,1-d][1,2,3,5]tetrazine-8-carboxamide] | 11 ± 1 | 49 ± 7 | 580 ± 20 | some susceptibility to the effects of the microsomes | IC50 [3]: 6 ± 1 µM; increase in median survival over TMZ [4]: 24% |
| CN(C)C(=O)c1ncn2c(=O)n(C)nnc12 [Compound 5, N,N,3-trimethyl-4-oxo-3,4-dihydroimidazo[5,1-d][1,2,3,5]tetrazine-8-carboxamide] | 12 ± 5 | 40 ± 20 | 250 ± 60 | some susceptibility to the effects of the microsomes | IC50 [3]: 6 ± 1 µM; IC50 (T98G cells [5]; [12]): 25 ± 9 µM; IC50 (T98G cells [5]; 168 h, without O6BG): 250 ± 60 µM; Fold Change (T98G cells [5]): 10; increase in median survival over TMZ [4]: 46% |
| CCN(CC)C(=O)c1ncn2c(=O)n(C)nnc12 [Compound 6, N,N-diethyl-3-methyl-4-oxo-3,4-dihydroimidazo[5,1-d][1,2,3,5]tetrazine-8-carboxamide] | 13 ± 2 | 80 ± 30 | 160 ± 40 | – | Stability (2 h, No Microsomes) [6]: 95 ± 2%; Stability (2 h, Microsomes) [2]: 81 ± 1% |
| CCCCN(CCCC)C(=O)c1ncn2c(=O)n(C)nnc12 [Compound 7, N,N-dibutyl-3-methyl-4-oxo-3,4-dihydroimidazo[5,1-d][1,2,3,5]tetrazine-8-carboxamide] | 11 ± 2 | 27 ± 6 | 140 ± 20 | markedly less stability in liver microsomes | Stability (2 h, No Microsomes) [6]: 98 ± 3%; Stability (2 h, Microsomes) [2]: 1 ± 1% |
| Cn1nnc2c(C(=O)N3CCCC3)ncn2c1=O [Compound 8, 3-methyl-8-(pyrrolidine-1-carbonyl)imidazo[5,1-d][1,2,3,5]tetrazin-4(3H)-one] | 12 ± 4 | 17 ± 3 | 186 ± 5 | – | – |
| CCSC(=O)c1ncn2c(=O)n(C)nnc12 [Compound 10, S-ethyl 3-methyl-4-oxo-3,4-dihydroimidazo[5,1-d][1,2,3,5]tetrazine-8-carbothioate] | 8 ± 1 | 64 ± 21 | 327 ± 4 | – | – |
| CC(=O)c1ncn2c(=O)n(C)nnc12 [Compound 17, 8-acetyl-3-methylimidazo[5,1-d][1,2,3,5]tetrazin-4(3H)-one] | 18 ± 1 | – | – | generally stable to oxidative metabolism | pH dependence of hydrolysis [7]: pH-dependent; IC50 [3]: 5.2 ± 0.3 µM; IC50 (T98G cells [5]; [12]): 32 ± 4 µM; IC50 (T98G cells [5]; 168 h, without O6BG): 240 ± 20 µM; Fold Change (T98G cells [5]): 8; Cohort weight 7 days Post ([8]; mice, 7 days after single IV dose of 125 mg/kg, error SEM, 4 mice): 31 ± 1 g; Cohort weight Pre-treatment ([8]; mice, prior to single IV dose of 125 mg/kg, error SEM, 4 mice): 30 ± 1 g; myelosuppression / white blood cell effect ([8]; mice, single IV dose 125 mg/kg, complete blood count after 7 days): did not produce myelosuppression; extension of median survival past TMZ-treated mice ([4]; 14.9 mg/kg oral once-per-day for 5 total doses): more than 50 days |
| Cn1nnc2c(Br)ncn2c1=O [Compound 18, 8-bromo-3-methylimidazo[5,1-d][1,2,3,5]tetrazin-4(3H)-one] | – | – | – | – | IC50 (D54 cells; [13]): 20 ± 1 µM; IC50 (U87 cells; [14]): 26 ± 7 µM; IC50 (T98G cells [1]; [15]): 60 ± 10 µM |
| Cn1nnc2c(Cl)ncn2c1=O [Compound 19, 8-chloro-3-methylimidazo[5,1-d][1,2,3,5]tetrazin-4(3H)-one] | 21 ± 4 | 15 ± 4 | 60 ± 10 | generally stable to oxidative metabolism | Stability (2 h, No Microsomes) [6]: 91 ± 1%; Stability (2 h, Microsomes) [2]: 91 ± 3% |
| Cn1nnc2c(-c3ccccc3)ncn2c1=O [Compound 23, 3-methyl-8-phenylimidazo[5,1-d][1,2,3,5]tetrazin-4(3H)-one] | 7 ± 1 | 9 ± 1 | 14 ± 1 | – | Stability (2 h, No Microsomes) [6]: 103 ± 5%; Stability (2 h, Microsomes) [2]: 44 ± 2% |
| Cn1nnc2c(-c3ccc(F)cc3)ncn2c1=O [Compound 24, 8-(4-fluorophenyl)-3-methylimidazo[5,1-d][1,2,3,5]tetrazin-4(3H)-one] | – | – | – | – | IC50 (U87 cells; [14]): 13 ± 2 µM; IC50 (T98G cells [1]; [15]): 18 ± 2 µM |
| Cn1nnc2c(-c3ccc(C(F)(F)F)cc3)ncn2c1=O [Compound 25, 3-methyl-8-(4-(trifluoromethyl)phenyl)imidazo[5,1-d][1,2,3,5]tetrazin-4(3H)-one] | – | – | – | – | IC50 (U87 cells; [14]): 16 ± 1 µM; IC50 (T98G cells [1]; [15]): > 100 µM |
| Cn1nnc2c(-c3ccc(Cl)cc3)ncn2c1=O [Compound 26, 8-(4-chlorophenyl)-3-methylimidazo[5,1-d][1,2,3,5]tetrazin-4(3H)-one] | – | – | – | – | IC50 (D54 cells; [13]): 7 ± 1 µM; IC50 (U87 cells; [14]): 9 ± 1 µM; IC50 (T98G cells [1]; [15]): 19 ± 3 µM |
| Cc1cnc(-c2ncn3c(=O)n(C)nnc23)o1 [Compound 27, 3-methyl-8-(5-methyloxazol-2-yl)imidazo[5,1-d][1,2,3,5]tetrazin-4(3H)-one] | 9 ± 1 | 27 ± 4 | 100 ± 20 | – | IC50 (T98G cells [5]; [12]): 5 ± 1 µM; IC50 (T98G cells [5]; 168 h, without O6BG): 100 ± 20 µM; Fold Change (T98G cells [5]): 20; Cohort weight 7 days Post ([8]; mouse, in vivo, iv, 125 mg/kg): 31.6 ± 0.3 g; myelosuppression / white blood cell effect ([8]; mouse, in vivo, iv, 125 mg/kg): did not produce myelosuppression |
| Cn1nnc2c(C(N)=S)ncn2c1=O [Compound 28, 3-methyl-4-oxo-3,4-dihydroimidazo[5,1-d][1,2,3,5]tetrazine-8-carbothioamide] | 8 ± 1 | 9 ± 1 | 31 ± 4 | – | – |
